Experimental data from patent US8222260B2, “Substituted 6-anilinopurine derivatives as inhibitors of cytokinin oxidase/dehydrogenase and preparations containing these derivatives” (Univerzita Palackego V Olomouci, priority 2007, dated 2012).
Entries after “also recorded” stand apart in the source; their conditions may differ.

How the values were obtained:
[1] = tested on: T-lymphoblastic leukemia cell line CEM; assay: Calcein AM cytotoxicity assay; format: cell-based, human; conditions: Homo sapiens, 72 hours
[2] = tested on: Human diploid fibroblasts BJ; assay: Attachment frequency test (adherence of fibroblasts); format: cell-based; conditions: 0-25 μM, attached cells counted after 6 hours, BJ passage 19
Description: Attachment frequency test is one of the methods for evaluation of acute toxicity of compounds against adherent cells. The tested compound is added into the medium with a defined number of trypsinised cells and after certain time the number of attached cells is counted. Human diploid fibroblasts BJ (passage 19) and standard cultivation medium (DMEM with 5 g/l glucose, 2 mM glutamin, 100 U/ml penicillin, 100 μg/ml streptomycin and 10% fetal calf serum) were used. The attached cells were counted after 6 hours. The experiment was done in three repetitions. […] Thus the compound doesn't show acute toxicity against fibroblasts.

[3] = tested on: erytroid leukemia cell line K-562; assay: Calcein AM cytotoxicity assay; format: cell-based, human; conditions: Homo sapiens, K562, 72 hours
How it was run: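 Cells seeded at 2.500-30.000 per well, pre-incubated 24 h, then exposed 72 h at 37 °C to six 3-fold dilutions (top 166.6 μM), in triplicate. Calcein AM added to 1 μg/ml for 1 h; fluorescence gives growth inhibition, GI50 taken from dose-response curves.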

[4] = tested on: Transgenic 35S:AtCKX1 Arabidopsis seedlings; assay: Foliar spray of CKX overproducing Arabidopsis seedlings grown in soil, phenotype complementation; format: in vivo; conditions: 10 μM sprayed every second day for 1 month
Description: (§1) Transgenic 35S:AtCKX1 Arabidopsis and 35S:AtCKX1 and 35S:AtCKX2 tobacco seedlings grown in soil in the greenhouse were systematically treated with 10 μM of compound 12. Areal parts of the wild type and transgenic seedlings were sprayed every second day for 1 month with aqueous solution of compound 12 containing 0.01% Silwet L-77 wetting agent.

[5] = tested on: 35S:AtCKX1 and 35S:AtCKX2 tobacco seedlings; assay: Foliar spray of CKX overproducing tobacco seedlings grown in soil, phenotype complementation and root system; format: in vivo
Description: as §1

[6] = tested on: CKX1 overproducing Arabidopsis seedlings; assay: CKX1 overproducing Arabidopsis seedlings grown in vitro on MS medium, phenotype reversion; format: in vivo; conditions: in vitro on MS medium containing 0.1 μM compound
WT Arabidopsis plants = assay: Prolonged treatment of WT Arabidopsis plants, flowering; format: in vivo
Description: as §1
Flowers had aborted anthers and were sterile.

[7] = tested on: Rat C6 glioma (ATCC No. CCL107); assay: Anti-inflammatory activity: isoproterenol-induced cAMP synthesis (ELISA); format: cell-based; conditions: cAMP after 30 min, induced by (−)-isoproterenol
Description: Anti-inflammatory activity of several of the substituted 6-anilinopurine derivatives of this invention was determined; kinetin was also evaluated as a control. Rat C6 glioma (ATCC No. CCL107) was cultivated in monolayer in serum-free chemically defined medium containing Ham's F10/minimal essential medium (1:1 v/v), 2 mM L-glutamine, 1% (v/v) minimal essential medium vitamins (100×), 1% (v/v) minimal essential medium nonessential amino acids (100×), 100 U/ml penicillin, […], and 30 nM sodium selenite. Incubation was performed at 37° C. in a 100% humidified atmosphere. The assays were performed in the logarithmic growth phase at a density of 2.5×10^5 cells/cm^2. Intracellular cAMP synthesis was induced by addition of 5 mM (−)-isoproterenol; various amounts of test compounds were added at the same time as the (−)-isoproterenol. After 30 min incubation, the cellular amount of cAMP was determined using ELISA (cAMP-enzyme immunoassay kit from Amersham). The I50 values were determined from the dose-response curve in duplicate.

Row | SMILES | GI50 [1] [µM] | GI50 [3] [µM] | further results
1 | Clc1nc(Nc2ccccc2)c2[nH]cnc2n1 [Compound 1, 2-Chloro-6-anilinopurine] | > 167 |  | Attachment percentage [2]: not significantly influenced
2 | Clc1cccc(Nc2nc(Cl)nc3nc[nH]c23)c1 [Compound 3, 2-Chloro-6-(3-chloroanilino)purine] | > 167 |  | 
3 | Clc1ccc(Nc2nc(Cl)nc3[nH]cnc23)cc1 [Compound 4] | > 167 | > 167 | 
4 | Fc1cccc(Nc2nc(Cl)nc3nc[nH]c23)c1 [Compound 6, 2-Chloro-6-(3-fluoroanilino)purine] |  | > 167 | 
5 | COc1cccc(Nc2nc(Cl)nc3nc[nH]c23)c1 [Compound 12, 2-Chloro-6-(3-methoxyanilino)purine] |  |  | complementation of wild-type phenotype (release from growth inhibition) [4]: restauration of wild type phenotype; complementation of wild-type phenotype (release from growth inhibition) ([5]; 35S:AtCKX1 and 35S:AtCKX2 tobacco, 10 μM sprayed every second day for 1 month): restauration of wild type phenotype; effect of foliar application on root system ([5]; transgenic tobaccos, foliar application, 10 μM): enhancement of the root system; reversion of WT phenotype [6]: reversion of WT phenotype appeared; effect on flowering (WT Arabidopsis plants): altered development of flowers and inhibition of fertilisation
6 | Fc1nc(Nc2ccccc2)c2nc[nH]c2n1 [Compound 40] | > 167 |  | 
7 | Fc1nc(Nc2cccc(Cl)c2)c2nc[nH]c2n1 [Compound 42] | > 167 |  | 
8 | Oc1cccc(Nc2nc(F)nc3[nH]cnc23)c1 [Compound 48] |  | > 167 | 
9 | c1coc(CNc2ncnc3nc[nH]c23)c1 [Kinetin, 6-furfurylaminopurine, reference compound] | 155 |  | Effect (anti-inflammatory activity) [7]: inactive; also recorded: Not active
